Data published in patent US20260364184A1, “COMPOUND BASED ON OXOISOINDOLINYL-SUBSTITUTED TETRAHYDROPYRIMIDINE-DIONE AND USE THEREOF” (GLUETACS THERAPEUTICS (SHANGHAI) CO., LTD., priority 2023, published 2026).

Assays:
[1] = system: Human non-small cell lung cancer cell line NCI-H1975; assay: Inhibition of H1975 cell proliferation (CellTiter luminescent viability); format: cell-based; conditions: Table ID1, EGFR inhibitor-based; H1975, 96 hours; read-out: Inhibitory activity (IC50, nM) on tumor cell proliferation, H1975
Experimental: The tumor cells used herein were cultured in a cell culture medium listed in table 3 at 37 °C in an incubator with 5% CO2. Prior to experimentation, all cell lines used were correctly identified by STR profiling, and tested negative for mycoplasma contamination using a mycoplasma detection kit through routine screenings.
The IC50 values of the compounds of the present disclosure (including the compounds in Table 1, Table 2, and Examples 1-468) were determined using the CellTiter-Meiluncell Luminescent Cell Viability Assay Kit from Dalian Meilun Biotech Co., Ltd. The detailed procedure is as follows: Tumor cells were seeded in 96-well cell culture plates at the densities specified in Table 4. On the following day, the test compounds of the present disclosure were subjected to serial dilution. The dilution can be performed according to one of the following two methods: • (1) The first dilution method: The test compounds of the present disclosure (including the compounds in Table 1, Table 2, and Examples 1-468) were subjected to 5-fold serial dilutions starting from a highest concentration of 2000 μM, resulting in a total of 9 concentrations from high to low (2000, 400, 80, 16, 3.2, 0.64, 0.128, 0.0256, 0.00512 μM). Subsequently, 0.5 μL of the test compound dilution was transferred into the 96-well plate containing the cells, with each well containing 100 μL of cell culture medium. […] Into the 96-well plate, the diluted test compounds and corresponding detection reagents were added, resulting in final test compound concentrations of 500 nM and 10 nM, respectively. The experimental procedure is described below using the diluted 2 μM test compound as an example.
0.5 μL of the aforementioned diluted compound of the present disclosure (including the compounds in Table 1, Table 2, and Examples 1-468) was added to the seeded cells in 100 μL of medium, yielding a final test compound concentration of 10 nM. After the cells were treated with the compounds of the present disclosure for a specified period, the cell viability assay reagent was added to the culture medium according to the kit's instructions to determine cell viability. […] All controls were treated using the same procedure as the compounds of the present disclosure. The growth inhibition curves for the compounds of the present disclosure were plotted using Prism GraphPad software, and the IC50 values were calculated therefrom.

[2] = target: T1, EGFR (Homo sapiens, UniProt P00533); assay: Western blot degradation of EGFR; format: cell-based; conditions: H1975 Cell; 24 hours
T1 construct: L858R/T790M in cis, heterozygous with wild type), Western blot
T1 sequence (P00533 25-1210): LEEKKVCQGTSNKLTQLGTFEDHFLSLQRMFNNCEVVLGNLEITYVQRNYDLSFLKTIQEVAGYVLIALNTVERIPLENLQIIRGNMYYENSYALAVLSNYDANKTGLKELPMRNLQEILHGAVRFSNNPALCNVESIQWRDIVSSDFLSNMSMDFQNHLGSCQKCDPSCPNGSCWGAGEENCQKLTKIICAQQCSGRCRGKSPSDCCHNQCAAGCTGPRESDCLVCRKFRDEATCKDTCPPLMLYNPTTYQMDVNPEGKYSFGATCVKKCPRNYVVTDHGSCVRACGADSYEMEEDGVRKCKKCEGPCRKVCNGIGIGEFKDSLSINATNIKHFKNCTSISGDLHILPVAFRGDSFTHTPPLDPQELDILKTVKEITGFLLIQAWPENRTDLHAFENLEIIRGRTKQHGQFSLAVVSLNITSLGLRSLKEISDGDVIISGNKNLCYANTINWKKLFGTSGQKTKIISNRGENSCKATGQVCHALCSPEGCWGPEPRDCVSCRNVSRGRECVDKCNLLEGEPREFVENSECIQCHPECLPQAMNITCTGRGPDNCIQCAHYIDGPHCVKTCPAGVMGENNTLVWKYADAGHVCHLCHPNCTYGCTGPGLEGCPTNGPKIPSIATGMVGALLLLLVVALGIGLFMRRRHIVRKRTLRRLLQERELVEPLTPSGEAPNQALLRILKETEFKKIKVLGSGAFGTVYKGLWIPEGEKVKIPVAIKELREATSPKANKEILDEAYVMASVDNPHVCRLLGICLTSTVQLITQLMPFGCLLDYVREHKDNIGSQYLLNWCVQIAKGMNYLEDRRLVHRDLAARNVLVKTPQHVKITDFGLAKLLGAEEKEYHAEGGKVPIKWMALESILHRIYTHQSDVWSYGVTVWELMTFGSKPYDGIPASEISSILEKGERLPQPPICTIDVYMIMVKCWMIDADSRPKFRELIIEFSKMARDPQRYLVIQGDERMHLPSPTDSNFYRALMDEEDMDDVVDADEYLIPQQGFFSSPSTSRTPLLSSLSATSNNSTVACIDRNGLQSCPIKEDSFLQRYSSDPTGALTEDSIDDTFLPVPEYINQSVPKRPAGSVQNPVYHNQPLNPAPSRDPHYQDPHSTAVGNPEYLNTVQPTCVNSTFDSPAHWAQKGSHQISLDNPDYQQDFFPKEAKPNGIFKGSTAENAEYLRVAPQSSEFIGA
T1 sequence (Q96SW2 whole entry partner): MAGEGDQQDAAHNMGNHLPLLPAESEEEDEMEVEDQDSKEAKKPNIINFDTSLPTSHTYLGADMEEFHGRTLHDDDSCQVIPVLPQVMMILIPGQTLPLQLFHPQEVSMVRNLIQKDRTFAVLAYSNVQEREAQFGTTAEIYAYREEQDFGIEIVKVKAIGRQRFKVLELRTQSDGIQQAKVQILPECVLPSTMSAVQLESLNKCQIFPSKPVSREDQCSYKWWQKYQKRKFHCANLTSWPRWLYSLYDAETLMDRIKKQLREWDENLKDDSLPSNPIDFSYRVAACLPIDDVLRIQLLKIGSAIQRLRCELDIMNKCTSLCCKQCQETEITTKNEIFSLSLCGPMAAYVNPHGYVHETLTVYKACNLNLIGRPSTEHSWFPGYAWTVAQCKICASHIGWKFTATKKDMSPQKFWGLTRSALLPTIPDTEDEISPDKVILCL
Experimental: Conventional Western blot assay was performed to evaluate the effects of the compounds of the present disclosure on the expression of target proteins in cells.
(1) Cell Seeding and Protein Harvesting: The selected cells were processed according to the cell seeding procedure and protein harvesting procedure in Table II-2.
(2) To the collected supernatant, 5×SDS sample loading buffer was added, followed by denaturation at 95 °C for 5 minutes. The denatured samples were then separated by SDS-PAGE electrophoresis on a polyacrylamide gel. Proteins were transferred to a nitrocellulose membrane (0.45 μm NC membrane), blocked with blocking buffer at room temperature for 1 hour, and subjected to antibody incubation and development procedures according to the antibody manufacturer's instructions (Cell Signaling Technology).
Half-Maximal Degradation Concentration value (the drug concentration required for degrading proteins by 50%, abbreviated as DC50) reads method: comparing the grayscale values of Western blot bands from drug-treated samples with those from blank DMSO-treated controls, and identifying the drug concentration range at which the grayscale value is half that of the DMSO-treated control bands.
DC50 values can be calculated using ImageJ software to measure grayscale values of Western blot bands from drug-treated samples. The concentration-response curve is fitted to estimate the drug concentration corresponding to half the grayscale value.
Target protein remaining (%) refers to the percentage of target protein remaining in cells after treatment with protein degrader compounds.
Calculation method for target protein remaining (%): Use ImageJ software to measure grayscale values of Western blot bands from drug (protein degrader)-treated samples. The grayscale value of drug-treated bands is divided by that of internal control protein bands, and the resulting quotient is normalized to obtain the relative percentage of remaining target protein after protein degrader treatment.
Target protein degradation rate (%)=1−target protein remaining (%).

[3] = target: T2, human Cereblon WT GST-tagged protein (CRBN) (Homo sapiens, UniProt Q96SW2); assay: CRBN binding by HTRF (Cereblon binding kit); conditions: for inhibition at 0.5 µM: read-out: Inhibition Rate at 0.5 μM (%); for inhibition at 2 µM: read-out: Inhibition Rate at 2 μM (%)
T2 construct: purchased CISBIO 64BDCRBNPEH
T2 sequence (Q96SW2 whole entry): as the sequence (Q96SW2 whole entry partner) above
Summary of the method: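 GST-tagged human Cereblon WT was incubated 3 h at room temperature with compound, thalidomide-Re tracer and Eu anti-GST antibody. Final compound concentrations were 10 to 0.00064 µM (7 points) or 2 and 0.5 µM. Inhibition rate was calculated from HTRF 665/620 nm ratios versus solvent and blank controls.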

Row | IC50 [1] [nM] | Degradation of substrate protein EGFR (substrate protein remaining %) [2] | SMILES | also measured
1 | 50 to 100 | – | O=C1CCN(N2C(=O)c3ccc(CN4C[C@H]5C[C@@H]4CN5c4ccc(-c5cc(F)c6c(c5)C(=O)N(C(C(=O)Nc5nccs5)c5ncn7c5CCC7)C6)cc4)cc3C2=O)C(=O)N1 (stereo partly drawn) [GT-06173, 2-(6,7-dihydro-5H-pyrrolo[1,2-c]imidazol-1-yl)-2-(6-(4-((1R,4R)-5-((2-(2,4-dioxotetrahydropyrimidin-1(2H)-yl)-1,3-dioxoisoindolin-5-yl)methyl)-2,5-diazabicyclo[2.2.1]heptan-2-yl)phenyl)-4-fluoro-1-oxoisoindolin-2-yl)-N-(thiazol-2-yl)acetamide] | –
2 | 1000 to 5000 | – | C#Cc1cccc(Nc2ncnc3cc(OCCOC)c(OCCOC)cc23)c1 [erlotinib, Erlotinib, reference compound] | –
3 | 10 to 50 | – | CN(Cc1ccc2c(c1)C(=O)N(N1CCC(=O)NC1=O)C2=O)C1CCN(c2ccc(-c3cc(F)c4c(c3)C(=O)N(C(C(=O)Nc3nccs3)c3ncn5c3CCC5)C4)cc2)CC1 (centres unmarked) [GT-05196, 2-(6,7-dihydro-5H-pyrrolo[1,2-c]imidazol-1-yl)-2-(6-(4-(4-(((2-(2,4-dioxotetrahydropyrimidin-1(2H)-yl)-1,3-dioxoisoindolin-5-yl)methyl)(methyl)amino)piperidin-1-yl)phenyl)-4-fluoro-1-oxoisoindolin-2-yl)-N-(thiazol-2-yl)acetamide] | –
4 | – | A (0%≤substrate protein remaining %≤80%) | CN(Cc1ccc2c(c1)CN(N1CCC(=O)NC1=O)C2=O)C1CCN(c2ccc(Nc3ncc4nc(Nc5ccccc5)n(C5CCCC5)c4n3)cc2)CC1 [GT-05842, 1-(5-(((1-(4-((9-cyclopentyl-8-(phenylamino)-9H-purin-2-yl)amino)phenyl)piperidin-4-yl)(methyl)amino)methyl)-1-oxoisoindolin-2-yl)dihydropyrimidine-2,4 (1H,3H)-dione] | inhibition at 0.5 µM [3]: 10 to 20%; inhibition at 2 µM [3]: 53 to 60%
5 | 10 to 50 | – | O=C1CCN(N2C(=O)c3cccc(N4CCC(CN5CCN(c6ccc(-c7cc(F)c8c(c7)C(=O)N(C(C(=O)Nc7nccs7)c7ncn9c7CCC9)C8)cc6)CC5)CC4)c3C2=O)C(=O)N1 (centres unmarked) [GT-06162, 2-(6,7-dihydro-5H-pyrrolo[1,2-c]imidazol-1-yl)-2-(6-(4-(4-((1-(2-(2,4-dioxotetrahydropyrimidin-1(2H)-yl)-1,3-dioxoisoindolin-4-yl)piperidin-4-yl)methyl)piperazin-1-yl)phenyl)-4-fluoro-1-oxoisoindolin-2-yl)-N-(thiazol-2-yl)acetamide] | –
6 | 130 to 200 | – | CN(C)C/C=C/C(=O)Nc1cc2c(Nc3ccc(F)c(Cl)c3)ncnc2cc1O[C@H]1CCOC1 [afatinib, Afatinib, reference compound] | –
7 | < 10 | – | O=C1CCN(N2Cc3cc(CN4C[C@H]5C[C@@H]4CN5c4ccc(-c5cc(F)c6c(c5)C(=O)N(C(C(=O)Nc5nccs5)c5ncn7c5CCC7)C6)cc4)ccc3C2=O)C(=O)N1 (stereo partly drawn) [GT-06172, 2-(6,7-dihydro-5H-pyrrolo[1,2-c]imidazol-1-yl)-2-(6-(4-((1R,4R)-5-((2-(2,4-dioxotetrahydropyrimidin-1(2H)-yl)-1-oxoisoindolin-5-yl)methyl)-2,5-diazabicyclo[2.2.1]heptan-2-yl)phenyl)-4-fluoro-1-oxoisoindolin-2-yl)-N-(thiazol-2-yl)acetamide] | –
8 | 100 to 130 | – | O=C1CCN(N2C(=O)c3ccc(CN4CCN(c5ccc(-c6cc(F)c7c(c6)C(=O)N(C(C(=O)Nc6nccs6)c6ncn8c6CCC8)C7)cc5)CC4)cc3C2=O)C(=O)N1 (centres unmarked) [GT-06160, 2-(6,7-dihydro-5H-pyrrolo[1,2-c]imidazol-1-yl)-2-(6-(4-(4-((2-(2,4-dioxotetrahydropyrimidin-1(2H)-yl)-1,3-dioxoisoindolin-5-yl)methyl)piperazin-1-yl)phenyl)-4-fluoro-1-oxoisoindolin-2-yl)-N-(thiazol-2-yl)acetamide] | –
9 | – | A (0%≤substrate protein remaining %≤80%) | COC1CCN(c2nccc(Nc3cc4c(cn3)c(N3CCC(N(C)CC5CCN(c6cccc7c6C(=O)N(N6CCC(=O)NC6=O)C7=O)CC5)CC3)nn4C(C)C)n2)CC1 [GT-06119, 2-(2,4-dioxotetrahydropyrimidin-1(2H)-yl)-4-(4-(((1-(1-isopropyl-6-((2-(4-methoxypiperidin-1-yl)pyrimidin-4-yl)amino)-1H-pyrazolo[4,3-c]pyridin-3-yl)piperidin-4-yl)(methyl)amino)methyl)piperidin-1-yl)isoindoline-1,3-dione] | inhibition at 0.5 µM [3]: 10 to 20%; inhibition at 2 µM [3]: 53 to 60%
10 | – | A (0%≤substrate protein remaining %≤80%) | COC1CCN(c2nccc(Nc3cc4c(cn3)c(N3CCN(CC5CCN(c6cccc7c6C(=O)N(N6CCC(=O)NC6=O)C7=O)CC5)CC3)nn4C(C)C)n2)CC1 [GT-06035, 2-(2,4-dioxotetrahydropyrimidin-1(2H)-yl)-4-(4-((4-(1-isopropyl-6-((2-(4-methoxypiperidin-1-yl)pyrimidin-4-yl)amino)-1H-pyrazolo[4,3-c]pyridin-3-yl)piperazin-1-yl)methyl)piperidin-1-yl)isoindoline-1,3-dione] | –
11 | – | A (0%≤substrate protein remaining %≤80%) | COc1cc(N2CCC(N3CCN(Cc4ccc5c(c4)C(=O)N(N4CCC(=O)NC4=O)C5=O)CC3)CC2)c(C)cc1Nc1ncc(Br)c(Nc2ccc3nccnc3c2P(C)(C)=O)n1 [GT-06154, 5-((4-(1-(4-((5-bromo-4-((5-(dimethylphosphoryl)quinoxalin-6-yl)amino)pyrimidin-2-yl)amino)-5-methoxy-2-methylphenyl)piperidin-4-yl)piperazin-1-yl)methyl)-2-(2,4-dioxotetrahydropyrimidin-1(2H)-yl)isoindoline-1,3-dione] | –
12 | – | A (0%≤substrate protein remaining %≤80%) | COc1cc(N2CCC(N3CCN(CC4CCN(c5cccc6c5C(=O)N(N5CCC(=O)NC5=O)C6=O)CC4)CC3)CC2)c(C)cc1Nc1ncc(Br)c(Nc2ccc3nccnc3c2P(C)(C)=O)n1 [GT-05998, 4-(4-((4-(1-(4-((5-bromo-4-((5-(dimethylphosphoryl)quinoxalin-6-yl)amino)pyrimidin-2-yl)amino)-5-methoxy-2-methylphenyl)piperidin-4-yl)piperazin-1-yl)methyl)piperidin-1-yl)-2-(2,4-dioxotetrahydropyrimidin-1(2H)-yl)isoindoline-1,3-dione] | –
13 | – | A (0%≤substrate protein remaining %≤80%) | O=C1CCN(N2Cc3cc(CN4CCN(c5ccc(Nc6ncc7nc(Nc8ccccc8)n(C8CCCC8)c7n6)cc5)CC4)ccc3C2=O)C(=O)N1 [GT-05836, 1-(5-((4-(4-((9-cyclopentyl-8-(phenylamino)-9H-purin-2-yl)amino)phenyl)piperazin-1-yl)methyl)-1-oxoisoindolin-2-yl)dihydropyrimidine-2,4 (1H,3H)-dione] | –
